Data from patent publication US12599560B2, “Lipids and lipid nanoparticle formulations” (Longuide Biopharma Corporation, priority 2023, dated 2026).

Columns and labels:
mice = experiment: In vivo delivery of FLuc-mRNA lipid nanoparticle preparations in mice (IVIS imaging); set-up: In vivo IVIS / In vivo IVIS (liver) / In vivo IVIS (spleen): unit not given here; conditions: for in vivo delivery efficiency as compared to the benchmark compound SM102: certain formulations
Description: 7. In Vivo Delivery of the Nucleic Acid Lipid Nanoparticle Preparations in Mice After the preparation was completed, the preparation was injected intramuscularly (mice rectus femoris muscle of the thigh) or intravenously (mice tail vein), with approximately 75 μL per mouse, for a total of 3 mice. After a certain time of injection, in vivo imaging (PerkinElmer, IVIS Lumina III) was performed. 10-15 minutes before imaging, 200 μL of 15 mg/mL D-Luciferin working solution was injected intraperitoneally, and the imaging analysis was performed using an in vivo imager.

[1] = Particle size and PDI by dynamic light scattering; type: physicochemical
Description: The 7.5 μL nucleic acid lipid nanoparticle solution (containing approximately 0.04 mg/mL mRNA) was taken and added with 200 μL ultrapure water, mixed by gentle blowing using a pipette tip, and the particle size of the nanopreparation was detected by dynamic lightscattering (DLS) using a Malvern Dynamic Light Scattering Instrument (Malvern Instruments Ltd., ZEN3700, UK). 27.5 μL nucleic acid lipid nanoparticle solution (containing about 0.04 mg/mL mRNA) was taken and added with 200 μL ultrapure water. A pipette tip was used to gently blow the sample and mix well. The particle size of the nanopreparation was detected by Malvern Dynamic Light Scattering Instrument (Malvern Instruments Ltd., ZEN3700, UK). After the detection, the sample was recovered to an EP tube, and 600 μL of ultrapure water was added, gently blown with a pipette tip, and the potential of the nanopreparation was measured by a Malvern particle size meter.

Delta-S protein = experiment: In vivo immunization with Delta Spike mRNA LNP, serum ELISA for specific antibody; set-up: species or system mice; conditions: serum after second administration; IM
Description: Lipid nanoparticles encapsulating the nucleic acid drugs were prepared according to step 2. The mRNA was replaced with Delta Spike full length mRNA (Shanghai Zhaowei Science and Technology Development Co., Ltd.) and then administered to the mice at a dose of 5 μg per mouse, and on the 14th day after the first immunization, the whole blood of the mice was collected by canthus sampling, and the drug administration was repeated for the second immunization. On the 14th day after the second immunization, the whole blood was collected from mice by canthus sampling. The whole blood was centrifuged at 5000 rcf for 5 mn, and the supernatant was centrifuged at 10000 rcf for 5 min to obtain the serum, which was aliquated into serial tubes and stored in the refrigerator at −20° C.
• 9.2.1 Coating: Add 100 μL of 0.2 μg/100 μL Delta-S protein (Novoprotein Scientific Inc.) dilution solution to each well, and leave it in the refrigerator at 4° C. overnight. • 9.2.2 Washing: Add 200 μL of PBST (PBS buffer solution containing 0.05% Tween-20 at pH 7.4) to each well and wash three times. • 9.2.3 Blocking: Add 200 μL of 5% (w/v) BSA-PBS solution (BSA bovine serum albumin, Bioss Biotechnology Co., Ltd.) to each well, and shake for 2 h at 50 rcf at room temperature using a shaker. • 9.2.4 Washing: Add 200 μL of PBST to each well to wash once. • 9.2.5 Adding samples: Add 100 μL of serum diluted 200 times with PBS (0.5 μL of serum) to each well (for the ELISA titer assay, serum diluted 200 times, 800 times, 3200 times, 12800 times, 51200 times, 204800 times), and shake at room temperature for 2 h at 50 rcf using a shaker. • 9.2.6 Washing: Add 200 μL of PBST into each well for three times. • 9.2.7 Adding detection antibody: Add 100 μL of HRP-labeled goat anti-mouse IgG detection antibody (0.1 μL of antibody master batch) (Sangon Biotech (Shanghai) Co., Ltd.) diluted 1000-fold into each well, and shake at 50 rcf for 1 h at room temperature using a shaker. • 9.2.8 Washing: Add 200 μL of PBST to each well and wash three times. • 9.2.9 Adding TMB (Beijing Solarbio Science & Technology Co., Ltd.): Add 50 μL of TMB mixture with the volume ratio of liquid A:liquid B of 1:1 to each well, and react for 5 mn (ELISA of blood sample I), 7 min 58 sec (ELISA of blood sample II), and react for about 5 min (ELISA titer of blood sample II). • 9.2.10 Adding phosphate (Aladdin Reagent (Shanghai) Co., Ltd.): add 50 μL of 1 mol/L phosphate per well to terminate the reaction. • 9.2.11 Detection: Use multi-function plate reader for detection. 9.3. Neutralization Antibody Levels Detected by Pseudovirus Neutralization Assay • 9.3.1 Cell seeding: 293T-ACE2 cells (Fubio (Suzhou) Biomedical Technology Co., Ltd.) were inoculated with 1×10^5 cells in each well of a 48-well plate at a concentration of 1×10^5 cells in 300 μL of DMEM medium (containing 10% heat-inactivated FBS without bispecific antibody), the 48-well plate was labeled with information such as “number, cell type, number of generations, medium type, date and name”, and then the cells were cultured in a cell culture incubator at 37° C. with 5% CO2 for 18 hours. • 9.3.2 Before the pseudovirus transfection operation, prepare an ice box, re-dissolve the serum to be used on ice, thaw on ice the virus from the −25° C. refrigerator. After thawing, the serum and pseudovirus were flicked homogenously and centrifuged with a palm centrifuge. • 9.3.3 Examine the neutralization antibody with serum diluted in different ratios: use complete culture medium to dilute the pseudovirus (Fubio (Suzhou) Biomedical Technology Co., Ltd.) and mouse serum respectively, mix them well, and then dilute them 40-fold, 100-fold, 250-fold and 625-fold according to the final concentration of the cells of incubation. […]

[2] = Table 2, IV, whole body scan, molar ratio DMG-PEG2000:DSPC:Chol:Lipid and N/P
[3] = Table 2, LNP formulation with mRNA
[4] = Table 4, molar ratio 1.40:11.15:38.95:48.50, N/P 36, IV formulation
[5] = Table 4, molar ratio 2.00:4.00:59.00:35.00, N/P 35, IM formulation

Structure (SMILES)	In vivo IVIS (mice; Table 2, IM, whole body scan)	In vivo IVIS (liver) (mice; Table 2, IV)	In vivo IVIS (spleen) (mice; Table 2, IV)	In vivo IVIS (mice; [2])	in vivo delivery efficiency as compared to the benchmark compound SM102 (mice; Table 2)	Particle size (nm) [1, 3] [nm]	PDI ([1]; Table 2, polydispersity value)	OD 450 nm-630 nm (Delta-S protein)	In vivo IVIS (mice; Table 4, IM)	In vivo IVIS (mice; Table 4, IV)	other results
CCCCCCC(CCCCCC)C(=O)OCCCCOC(=O)C(O)CN1CCN(CCN(CC(O)C(=O)OCCCCOC(=O)C(CCCCCC)CCCCCC)CC(O)C(=O)OCCCCOC(=O)C(CCCCCC)CCCCCC)CC1 (centres unmarked) [Compound L0186]	1.58 × 10^8	5.61 × 10^7	2.65 × 10^7	2.77 × 10^8	superior in vivo delivery efficiency	89.99 ± 0.58	0.12 ± 0.00	1.70			
CCCCCCC(CCCCCC)C(=O)OCCCCCCOC(=O)C(O)CN1CCN(CCN(CC(O)C(=O)OCCCCCCOC(=O)C(CCCCCC)CCCCCC)CC(O)C(=O)OCCCCCCOC(=O)C(CCCCCC)CCCCCC)CC1 (centres unmarked) [Compound L0187]	9.72 × 10^7	2.46 × 10^7	2.00 × 10^7	1.11 × 10^8	superior in vivo delivery efficiency	80.11 ± 0.17	0.12 ± 0.01	1.70			
CCCCCCOCOCCCCCCOC(=O)C(O)CN(CCCN1CCN(CCCN(CC(O)C(=O)OCCCCCCOCOCCCCCC)CC(O)C(=O)OCCCCCCOCOCCCCCC)CC1)CC(O)C(=O)OCCCCCCOCOCCCCCC (centres unmarked) [Compound L0192]				5.56 × 10^10	superior in vivo delivery efficiency			1.68			Particle size (nm) ([1]; Table 2, LNP formulation with mRNA, molar ratio 1.50:4.00:59.50:35.00, N/P 65): 112.83 ± 0.31 nm; Particle size (nm) ([1]; Table 2, LNP formulation with mRNA, molar ratio 1.77:14.07:49.16:35.00, N/P 54): 96.59 ± 0.78 nm; Particle size (nm) ([1]; Table 2, LNP formulation with mRNA, molar ratio 1.77:14.07:59.16:25.00, N/P 52): 113.33 ± 1.07 nm; PDI ([1]; Table 2, polydispersity value, molar ratio 1.50:4.00:59.50:35.00, N/P 65): 0.15 ± 0.01; PDI ([1]; Table 2, polydispersity value, molar ratio 1.77:14.07:49.16:35.00, N/P 54): 0.08 ± 0.02; PDI ([1]; Table 2, polydispersity value, molar ratio 1.77:14.07:59.16:25.00, N/P 52): 0.11 ± 0.02
CCCCCCCC/C=C\CCCCCCCCNC(=O)C(O)CN1CCN(CCN(CC(O)C(=O)NCCCCCCCC/C=C\CCCCCCCC)CC(O)C(=O)NCCCCCCCC/C=C\CCCCCCCC)CC1 (centres unmarked) [Compound L0223]									1.83 × 10^6	1.42 × 10^8	PDI ([1]; Table 4): 0.13 ± 0.03; Particle size (nm) ([1]; Table 4): 98.88 ± 1.32 nm
CCCCCCOC(C)OCCCCCCOC(=O)C(O)CN(CCCN1CCN(CCCN(CC(O)C(=O)OCCCCCCOC(C)OCCCCCC)CC(O)C(=O)OCCCCCCOC(C)OCCCCCC)CC1)CC(O)C(=O)OCCCCCCOC(C)OCCCCCC (centres unmarked) [Compound L0224]									3.31 × 10^8	4.84 × 10^9	PDI [1, 4]: 0.07 ± 0.02; Particle size (nm) [1, 4]: 108.57 ± 1.60 nm; PDI [1, 5]: 0.14 ± 0.01; Particle size (nm) [1, 5]: 84.67 ± 0.79 nm
